Where a name gives a salt, the structure may show the parent alone.
Tests used:
[1] = Solubility of process impurity (observation); type: physicochemical
From the text: Under certain conditions where the compounds of the present invention and their synthetic intermediates are exposed to acidic or alkaline aqueous environments, the bond between the aromatic heterocycle and the ring substituents may be susceptible to hydrolytic cleavage. For example, in the intermediates to compounds of formula (II-a), a halo substituent in the 2 position (Schemes 3 and 4) may be hydrolytically replaced with a hydroxyl group to yield N-(4,6-Bis(n-propylamino)-1,3,5-triazin-2-ol (CLXXVIII). Similarly, the amine substituents of compounds of formula (II-a) may be displaced by a hydroxyl group. Without wishing to be bound by theory, a series of chemical changes may occur to enable this substitution, such as a prior oxidation of the appended amine side chain, with hydrolytic replacement by hydroxyl as the final transformation. As a specific non-limiting example, the N,O-dimethylhydroxylamino substituent of N-(4,6-Bis-n-propylamino-[1,3,5]triazin-2-yl)-N,O-dimethyl-hydroxylamine (XXXV) may be partially displaced by hydroxyl during processing in the presence of water, forming (CLXXVIII) as a process impurity. […] It was unexpectedly observed that even at elevated temperatures (CLXXVIII) is very insoluble relative to the active ingredient. Thus, trace quantities of this compound in the API can be problematic in liquid formulations. […]

Row | SMILES | melting point | solubility in aqueous environments [1] | solubility in most organic solvents [1]
1 | CCCNc1cc(N(C)OC)nc(NCCC)n1 (as salt: hydrogen sulfate) [CXXI, 2,6-Bis-(N-n-propylamino)-[1,3]pyrimidin-4-yl)-N,O-dimethyl-hydroxylamine hydrogen sulfate] | 123 to 126 °C |  | 
2 | CCCNc1nc(O)nc(NCCC)n1 [CLXXVIII] |  | sparingly soluble | very low solubility

— patent US9162992B2, “Compounds and compositions for treatment of breathing control disorders or diseases” (GALLEON PHARMACEUTICALS, INC., priority 2010, dated 2015)
